The text below walks through data of patent US6048523A, “Polyester cyclic compounds, their complexes and bonded bodies” (priority 1996, dated 2000).

Structures are written as SMILES.

In test [1] the test system is Yoshida sarcoma cells. Put plainly: suppression of Yoshida sarcoma cells in culture. In kind it is cell-based. Particulars: Rattus norvegicus, 72 h, 3 days, read-out: suppression rate to control. Here is the method: A concentration of each compound or complex in the culture solution was adjusted to 1 mg/ml, 0.5 mg/ml, 0.25 mg/ml or 0.125 mg/ml. After the sarcoma cells were cultivated for 3 days, the number of the cells was measured.

Test [2] deals with lactic acid bacteria. Nature of the test: multiplication of lactic acid bacteria in MRS medium. Format: cell-based. Conditions: 0.25 mg/10 ml MRS medium, 48 hours; read-out: Multiplication rates to control. Here is the method:
Pre-cultivated lactic acid bacteria were seeded into each MRS medium in a predetermined amount. After 48 hours, it was diluted to a predetermined magnification and inoculated on an MRS agar medium to measure the number of the bacteria.

Test [3] deals with Yoshida sarcomas. Put plainly: Yoshida sarcoma transplanted into rat, oral administration. In kind it is in vivo, Donryu-rat. Particulars: 8 mg/kg/day, 2 weeks. Here is the method: Yoshida sarcomas were transplanted into a Donryu-rat of an age of 5 weeks. […] After the administration, sizes of the sarcomas were measured.
The test system of test [4] is lactic acid bacteria in the bowel. Nature of the test: number of lactic acid bacteria in the bowel of rats after oral administration. Format: in vivo, rat. Conditions: oral 4 mg/kg/day, 4 weeks; upper limit of the measurement 20. From the text: After the administration, content of the bowel of each rat was taken, diluted to a predetermined magnification and inoculated on an MRS agar medium to measure the number of lactic acid bacteria in the bowel.

In test [5] the test system is macrophages. Put plainly: migration ability of macrophages (glass capillary method) after oral administration. Format: in vivo, SD rat. Conditions: oral 4 mg/kg/day, 4 weeks; migration area after 24 hours; ratio to control group. The method, then: After the administration, liquid paraffin was administered into peritoneal cavity of each rat. Three days later, peritoneal exudate cells were taken. Migration ability of macrophages produced from the peritoneal exudate cells was tested by glass capillary method. After 24 hours, a migration area of the macrophage was measured and a ratio of the measured migration area to that of control group was calculated.

Turning to `CC1OC(=O)C(C)OC1=O` (stereo not drawn) [formula (4), lactide], the inhibition at 125 µg/mL in test [1] (0.125 mg/ml) is -18.2%. For the same compound, the inhibition at 250 µg/mL in test [1] (0.25 mg/ml) amounted to 0%. In addition, in test [1] (0.5 mg/ml), the inhibition at 500 µg/mL was 0%. Further, in test [1] (1 mg/ml), the inhibition at 1000 µg/mL amounted to 40.9%. Further, the activity at 25 µg/mL in test [2] was 116%. Further, in test [3] (average values), the Size of sarcoma is on record as 3216.6 mm^3. Besides, in test [3] (versus control), the Suppression rate was determined as 57.9%. Besides, the “Ratio to control (number of lactic acid bacteria in the bowel)” value in test [4] came out at 3.8. For the same compound, the “Ratio of the migration area” value in test [5] is 1.13.
